US7157092B1, “Acyl pseudodipeptides, preparation method and pharmaceutical compositions containing same” (Om Pharma, priority 1998, dated 2007)
Read-outs that look alike come from different tables or passages of the source.

Columns and labels:
[1] = tested on: murine macrophage cells; test: Nitric oxide production in supernatants of macrophage cultures (Griess); type: cell-based, C57/BL6 mice; conditions: 22 hours incubation, Griess reagent; FIG. 2
Method: Two six-week old male C57/BL6 mice were killed by CO2 inhalation followed by cervical dislocation. The mice were washed with alcohol, and the skin of the posterior members was entirely removed. The hip, the femur and the tibia bones were removed by joint disruption. The flesh was grossly removed using a scalpel. The bones were cleaned and the bone ends were cut with scissors. The marrrow was aspirated by injecting three times 1 ml of Dulbecco's Modified Eagle Medium (DH medium) in the bone lumen. The cells were resuspended in DH medium and centrifuged at 300×g for 5 minutes. The supernatant fluid was discarded and the cells were resuspended at a density of 40 000 cells/ml in DH medium supplemented with 20% horse serum (HS) and 30% L929 culture supernatant. L929 is a murine fibroblast cell line the supernatant fluid of which is rich in growth factor for macrophage (M-CSF). […]
After 22 hours, the microtiter plates were centrifuged, 5 minutes at 400×g and 100 μl of supernatant fluid were withdrawn and transferred into a microtiter plate. […] The microtiter plates were read with a spectrophotometer at 562 nm wavelength against a reference at 690 nm. […]
The results are expressed as mean±standard deviation after deduction of the negative control value and plotted as a dose versus response curve.

[2] = tested on: limulus amoebocyte lysate (LAL); test: Chromogenic Limulus Amoebocyte Lysate (LAL) endotoxicity test; type: biochemical; conditions: for LAL activity in EU/mg: mean ± standard deviation
Method: Endotoxicity was determined by a chromogenic Limuls Amoebocyte Lysate test (Chromogenic LAL of Charles River Endosafe, batch # EK412E, Charleston, USA). This test is based on activation by a lipopolysaccharide (LPS) or structurally analogous products, of an enzymatic cascade present in LAL.
The enzymatic reaction is conducted at 37° C. and the time-course chromogen formation is measured at 405 nm. In the final stage of this time-course determination assay, the time required to achieve an OD of 0.2 unit is recorded and the endotoxic activity is calculated based on an LPS standard (standard curve).
Results are expressed in EU (Endotoxin Unit) in relation to a standardized preparation of E. coli lipolysaccharides. For this series of assays, 1 EU corresponds to […] of LPS equivalent.
It is mandatory to compare the quantitative assay of the pyrogen content with a given well standardized single series of experiments.

[3] = tested on: Pb CS 245-252 T-cell epitope; test: Murine immunization with Pb CS His6-242-310 peptide: CTL response (γ IFN ELISPOT); conditions: 0.05 mg adjuvant + 0.02 mg antigen s.c.; FIGS. 17-20
[4] = Weight change in rats of the peritoneal carcinoma study; type: in vivo, BDIX rats
[5] = tested on: LmCPb antigen; type: in vivo, CBA mice; conditions: for extent of proliferation, times higher than cultures from mice administered antigen alone (without adjuvant): in presence of LmCPb (15 μg/ml)
[6] = tested on: predendritic cells (DC-6); conditions: DC-9 stage
[7] = 2 injections LmCPb 3–5 μg with 2×50 μg OM adjuvant or 200 μg BCG, in vitro: No stimulant
[8] = 2 injections LmCPb with adjuvant, in vitro: Amastigotes 2 × 10^−6/ml
[9] = 2 injections LmCPb with adjuvant, in vitro: Amastigotes 6 × 10^−6/ml
[10] = 2 injections LmCPb with adjuvant, in vitro: Amastigotes 17 × 10^−6/ml
[11] = 2 injections LmCPb with adjuvant, in vitro: Con A 5 μg/ml
[12] = 2 injections LmCPb with adjuvant, in vitro: LmCPb 0.6 μg/ml
[13] = 2 injections LmCPb with adjuvant, in vitro: LmCPb 1.7 μg/ml
[14] = 2 injections LmCPb with adjuvant, in vitro: LmCPb 5 μg/ml
[15] = 2 injections LmCPb with adjuvant, in vitro: LmCPb 15 μg/ml

Structure (SMILES) | production of nitric oxide by murine macrophage cells [1] | LAL activity in LPS equivalents [2] | LAL activity in EU/mg [2] | CTL activity of lymphocytes from spleen and inguinal lymph nodes (γ IFN spots) [3] | 3H-TdR take-up [5, 7] | 3H-TdR take-up [5, 8] | 3H-TdR take-up [5, 9] | 3H-TdR take-up [5, 10] | 3H-TdR take-up [5, 11] | 3H-TdR take-up [5, 12] | 3H-TdR take-up [5, 13] | 3H-TdR take-up [5, 14] | 3H-TdR take-up [5, 15] | extent of proliferation, times higher than cultures from mice administered antigen alone (without adjuvant) [5] | further results
CCCCCCCCCCCC(=O)O[C@H](CCCCCCCCCCC)CC(=O)NC(CCOP(=O)(O)O)C(=O)NCCCC(COP(=O)(O)O)NC(=O)C[C@H](O)CCCCCCCCCCC (stereo partly drawn) [OM-294-DP, 3-[(R)-3-dodecanoyloxytetradecanoylamino]-4-oxo-5-aza-9-[(R)-3-hydroxytetradecanoylamino]decan-1,10-diol 1, 10-bis(dihydrogenphosphate)] | to a much greater extent than E. coli LPS | 6.2 ng eq. LPS/mg | 56 ± 48 EU/mg | clearly superior to the one induced by IFA | 21.8 ± 2.2 cpm × 10^−3/ml | 61.0 ± 1.7 cpm × 10^−3/ml | 81.5 ± 5.5 cpm × 10^−3/ml | 78.2 ± 7.8 cpm × 10^−3/ml | 135.9 ± 3.7 cpm × 10^−3/ml | 40.9 ± 12.7 cpm × 10^−3/ml | 57.2 ± 10.9 cpm × 10^−3/ml | 70.2 ± 9.2 cpm × 10^−3/ml | 100.0 ± 6.5 cpm × 10^−3/ml | 28 times | Weight of rats (mean ± standard deviation) ([4]; Day 0): 277 ± 19; Weight of rats (mean ± standard deviation) ([4]; Day 13): 310 ± 21; Weight of rats (mean ± standard deviation) ([4]; Day 20): 304 ± 23; Weight of rats (mean ± standard deviation) ([4]; Day 29): 317 ± 24; Weight of rats (mean ± standard deviation) ([4]; Day 41): 327 ± 26; effect on weight change in comparison to NaCl alone ([4]; rat, in vivo): no significant effect on weight change
CCCCCCCCCCCC(=O)O[C@H](CCCCCCCCCCC)CC(=O)NC(CCOP(=O)(O)O)C(=O)NCCCC(CO)NC(=O)C[C@H](O)CCCCCCCCCCC (stereo partly drawn) [OM-294-MP, 3-[(R)-3-dodecanoyloxytetradecanoylamino]-4-oxo-5-aza-9-[(R)-3-hydroxytetradecanoylamino]-decane-1,10-diol 1-dihydrogenphosphate] | weaker response | 1.4 ng eq. LPS/mg | 13 ± 2 EU/mg | clearly superior to the one induced by IFA | 17.1 ± 2.5 cpm × 10^−3/ml | 28.4 ± 8.3 cpm × 10^−3/ml | 66.1 ± 4.5 cpm × 10^−3/ml | 68.7 ± 2.3 cpm × 10^−3/ml | 151.4 ± 3.7 cpm × 10^−3/ml | 22.9 ± 2.8 cpm × 10^−3/ml | 34.1 ± 4.1 cpm × 10^−3/ml | 70.3 ± 6.4 cpm × 10^−3/ml | 124.2 ± 12.0 cpm × 10^−3/ml | 23 times | CD40 expression, % of mean fluorescence based on LPS-induced expression ([6]; FIG. 6): 39%; CD86 expression, % of mean fluorescence based on LPS-induced expression ([6]; FIG. 7): 77%; CD83 expression, % of mean fluorescence based on LPS-induced expression ([6]; FIG. 8): 60%; CD80 expression, % of mean fluorescence based on LPS-induced expression ([6]; FIG. 9): 62%
